These results are taken from patent US10301302B2, “Crystalline forms of N-(2-chloro-6-methy]phenvn-2-[F6-[4-(2-hvdroxvethvl)-L-piperazin-vil-2-methvil-4-pvrimidinvllaminol-5-thiazolecarboxamide and their process thereof” (MSN LABORATORIES PRIVATE LIMITED, priority 2015, dated 2019).

The conditions of data set [1]: cited from earlier work.
A short description of data set [2]: Solubility of the 1,2-propanediol solvate (stated advantage, no method given). It is filed as physicochemical. To be noted: advantageous property found by the inventors; no solvent or value given.

Consider `Cc1nc(Nc2ncc(C(=O)Nc3c(C)cccc3Cl)s2)cc(N2CCN(CCO)CC2)n1` [Dasatinib, N-(2-chloro-6-methylphenyl)-2-[[6-[4-(2-hydroxyethyl)-1-piperazinyl]-2-methyl-4-pyrimidinyl]amino]-5-thiazole carboxamide], for which the “solubility in alcoholic solvents” value in data set [1] (alcoholic solvents like ethanol and methanol) is reported as “slightly soluble”. Besides, the solubility in water result in data set [1] (water) is reported as “insoluble”.
Consider `Cc1nc(Nc2ncc(C(=O)Nc3c(C)cccc3Cl)s2)cc(N2CCN(CCO)CC2)n1` [1,2-propanediol solvate, 1,2-Propanediol solvate of N-(2-chloro-6-methylphenyl)-2-[[6-[4-(2-hydroxyethyl)-1-piperazinyl]-2-methyl-4-pyrimidinyl]amino]-5-thiazolecarboxamide], for which the solubility result in data set [2] is “good solubility”.
